Reference: paper PMC12040169 (PLOS Biology, 2025)

Assay: in vitro
Conditions: human, hela cells, % viability

Row | SMILES | viability at 28.5 h, 10 µM
1 | O=C(CSc1ccccc1)c1ccccc1 [CBK002224] | 97.4%
2 | CCOC(=O)c1c(-c2ccc(OC)cc2)noc1C(O)c1ccccc1 (centres unmarked) [CBK002296] | 90.6%
3 | Oc1cc(C(F)(F)F)nc(SCc2ccc(Cl)cc2)n1 [CBK002305] | 106%
4 | CC(CCN(CCN)C(=O)N1CCC(CNS(C)(=O)=O)(c2ccccc2)CC1)c1ccccc1 (centres unmarked) [CBK002335C] | 82.9%
5 | Oc1cc(C(F)(F)F)nc(N2CCCC2)n1 [CBK002389] | 105%
6 | Oc1cc(C(F)(F)F)nc(NCc2ccc(-c3ccccc3)cc2)n1 [CBK002395] | 105%
7 | Cc1cccc(CN(CC(C)(C)CN)C(=O)Nc2ccccc2C(F)(F)F)n1 [CBK002409C] | 105%
8 | COc1ccc(F)c(CN(CC(C)(C)CN)C(=O)Nc2ccccc2C(F)(F)F)c1 [CBK002412C] | 90.1%
9 | Cc1ccc(NC(=O)N(Cc2ccccc2Br)CC(C)(C)CN)cc1[N+](=O)[O-] [CBK002436C] | 111%
10 | Cc1ccc(NC(=O)N(Cc2ccc(-c3ccccc3)cc2)CC(C)(C)CN)cc1[N+](=O)[O-] [CBK002439C] | 83.7%
11 | Cc1cccc(CN(CC(C)(C)CN)C(=O)Nc2ccc(-c3ccccc3)cc2)n1 [CBK002453C] | 86.7%
12 | CC(C)(CN)CN(Cc1ccccc1Br)C(=O)NCc1ccc(F)cc1 [CBK002469C] | 92.9%
13 | COc1ccccc1CN(CC(C)(C)CN)C(=O)NCc1ccc(F)cc1 [CBK002470C] | 87%
14 | CC(C)(CN)CN(Cc1ccccc1C(F)(F)F)C(=O)NCc1ccc(F)cc1 [CBK002471C] | 87.8%
15 | CC(C)(CN)CN(Cc1cccc(Cl)c1)C(=O)Nc1ccc2c(c1)OCO2 [CBK002482C] | 107%
16 | Fc1ccccc1Oc1nnnn1-c1ccccc1 [CBK002526] | 98.2%
17 | COc1cc(C#N)ccc1Oc1ccc([N+](=O)[O-])cc1C(F)(F)F [CBK002544] | 104%
18 | COc1cc(C#N)ccc1Oc1ccc([N+](=O)[O-])cn1 [CBK002569] | 108%
19 | COc1cc(C#N)ccc1OCc1ccccc1 [CBK002577] | 62%
20 | COc1cc(C#N)ccc1OCc1cc(C)on1 [CBK002581] | 86.1%
21 | COc1cc(C#N)ccc1OCc1ccc2nc(C(F)(F)F)cc(Cl)c2c1 [CBK002589] | 98.3%
22 | O=[N+]([O-])c1ccc(Oc2cccc(Cl)c2Cl)c(C(F)(F)F)c1 [CBK002594] | 82.8%
23 | O=[N+]([O-])c1cc(F)ccc1Oc1cccc(Cl)c1Cl [CBK002604] | 112%

Row | SMILES | viability at 28.5 h, 10 µM
24 | N#Cc1ccc(COc2cccc(Cl)c2Cl)cc1 [CBK002611] | 92.5%
25 | Cc1cc(CSc2cccs2)no1 [CBK002635] | 91.8%
26 | N#Cc1ccccc1-c1ccc(CSc2cccs2)cc1 [CBK002638] | 90.5%
27 | Clc1ccc(COc2cccc3cccnc23)cn1 [CBK002718] | 93.2%
28 | O=[N+]([O-])c1ccc(Oc2cccc3cccnc23)c(F)c1 [CBK002750] | 60.4%
29 | O=[N+]([O-])c1cccnc1Oc1cccc2cccnc12 [CBK002760] | 97.4%
30 | COc1ccccc1OCc1ccc(Cl)s1 [CBK002782] | 82.7%
31 | FC(F)(F)c1cccc(Oc2nnnn2-c2ccccc2)c1 [CBK002798] | 92.6%
32 | N#Cc1ccc(Oc2cccc(C(F)(F)F)c2)c(F)c1 [CBK002801] | 88.3%
33 | COc1ccccc1OCc1ccccc1 [CBK002814] | 105%
34 | Cc1ccc(Oc2ccc([N+](=O)[O-])cc2F)c(Br)c1 [CBK002821] | 90.3%
35 | Cc1ccc(Oc2nnnn2-c2ccccc2)c(Br)c1 [CBK002827] | 106%
36 | Cc1ccc(OCc2cc(C)on2)c(Br)c1 [CBK002837] | 109%
37 | COc1ccccc1Oc1ccc(C(F)(F)F)cc1[N+](=O)[O-] [CBK002845] | 99%
38 | COc1ccccc1Oc1ccc([N+](=O)[O-])cc1F [CBK002850] | 90.8%
39 | O=C(O)[C@@H]1CCCN1c1nc(O)cc(C(F)(F)F)n1 [CBK002865] | 81.3%
40 | Fc1cccc(SCc2ccccc2)c1 [CBK002912] | 117%
41 | Cc1cc(=O)oc2cc(Sc3sccc3[N+](=O)[O-])ccc12 [CBK002936] | 90.5%
42 | Cc1nn(C)c(Sc2ccccc2)c1[N+](=O)[O-] [CBK002937] | 97.9%
43 | Cc1cc(=O)oc2cc(Sc3ccc([N+](=O)[O-])cc3)ccc12 [CBK002954] | 95.7%
44 | CN1CCN(c2nc(NS(=O)(=O)c3ccc(OC(F)(F)F)cc3)cc3ccccc23)CC1 [CBK002978C] | 87.7%
45 | NCCC(=O)N(CCc1cc(C(F)(F)F)cc(C(F)(F)F)c1)c1ccc(Oc2ccccc2)cc1 [CBK002998T] | 97.7%
46 | OC(CNCCc1ccccc1)COc1c(Br)cccc1Br (centres unmarked) [CBK003071] | 94%

Row | SMILES | viability at 28.5 h, 10 µM
47 | Cc1cccc(Cl)c1OCC(O)CNCCc1ccccc1 (centres unmarked) [CBK003076] | 102%
48 | OC(COc1c(Br)cccc1Br)CN1CCCCC1 (centres unmarked) [CBK003077T] | 90.9%
49 | CC(C)c1cccc(C(C)C)c1OCC(O)CN1CCCCC1 (centres unmarked) [CBK003079T] | 94.6%
50 | O=[N+]([O-])c1ccc(CCNCC(O)COc2cccc3c2CCCC3)cc1 (centres unmarked) [CBK003083] | 88.6%
51 | CC(C)(C)OC(=O)N1CCN(S(=O)(=O)c2ccc(Cl)c([N+](=O)[O-])c2)CC1 [CBK003165] | 100%
52 | COC(=O)C1=COC(C)C2CN3CCC4(NC(=O)c5c4ccc(OC)c5OC)C3CC12 (centres unmarked) [CBK003303] | 107%
53 | O=C(N[C@H]1CCCC[C@H]1N1CCCC1)N[C@H]1CCCC[C@H]1N1CCCC1 [CBK003419] | 115%
54 | O=C(O)c1cccc(Cn2ccc3c(F)cccc32)c1 [CBK003453] | 95.9%
55 | Oc1cc(C(F)(F)F)nc(NCc2ccc3ccccc3c2)n1 [CBK003459] | 92.2%
56 | COC(=O)C1(Cc2ccccc2)CN(C(=O)OC(C)(C)C)CCC1=O (centres unmarked) [CBK003486] | 93.2%
57 | COc1ccc([N+](=O)[O-])cc1N1CCN(C(=O)OC(C)(C)C)CC1 [CBK003504] | 92.3%
58 | CC(C)(C)OC(=O)N1CCN(c2cc(Cl)nc(N)n2)CC1 [CBK003505] | 91.8%
59 | COc1ccc(-c2nc(O)cc(C(F)(F)F)n2)cc1 [CBK003515] | 86.3%
60 | Cn1c2c(c3ccccc31)C(=O)NCC2 [CBK003517] | 89%
61 | Cc1cc2nc(NC(=N)N)[nH]c2cc1C [CBK003532] | 93.5%
62 | COc1ccc([C@@]23CCC(N)C[C@@H]2N(C)CC3)cc1OC (some centres unmarked) [CBK003576] | 114%
63 | OC(COc1cccc2c1CCCC2)CN1CCC(O)(c2ccc(Cl)c(C(F)(F)F)c2)CC1 (centres unmarked) [CBK003581] | 102%
64 | O=C(c1ccc(F)cc1)C1CCN(CC(O)COc2cccc3c2CCCC3)CC1 (centres unmarked) [CBK003583] | 101%
65 | OC(COc1cccc2c1CCCC2)CN1CCC(O)(c2ccc(Br)cc2)CC1 (centres unmarked) [CBK003584] | 72%
66 | Cc1ccc(N(CCc2cc(C(F)(F)F)cc(C(F)(F)F)c2)C(=O)CN)cc1NC(=O)CN(C)C [CBK003630T] | 84.5%
67 | COc1cccc2ccn(S(=O)(=O)c3ccsc3C(=O)O)c12 [CBK003636] | 96.1%
68 | CCC1CN(Cc2ccccc2)CCN1c1cncc(Cl)n1 (centres unmarked) [CBK003645] | 112%
69 | Oc1cc(C(F)(F)F)nc(CCc2ccc(Cl)cc2)n1 [CBK003678] | 107%

Row | SMILES | viability at 28.5 h, 10 µM
70 | COc1ccc(CCc2nc(C(F)(F)F)cc(=O)[nH]2)cc1 [CBK003679] | 87.3%
71 | Cc1ccc(S(N)(=O)=O)cc1NC(=O)c1ccc(Br)o1 [CBK003693] | 91.6%
72 | O=C(NCc1ccc(Cl)cc1)C1CCCN1c1nc(O)cc(C(F)(F)F)n1 (centres unmarked) [CBK003706] | 115%
73 | CCNC(=S)N[C@H]1CC[C@@]2(Cc3ccccc3Cl)CCN(C)[C@H]2C1 [CBK003708] | 92%
74 | Oc1cc(C(F)(F)F)nc(NCc2cccc3ccccc23)n1 [CBK003716] | 92.7%
75 | CCOC(=O)c1ccccc1NC(=O)n1ccc2c(N3CCNCC3)cccc21 [CBK003731C] | 50.8%
76 | CC(C)(C)c1ccc(NC(=O)n2ccc3c(N4CCNCC4)cccc32)cc1 [CBK003736C] | 27%
77 | CCCCc1ccc(S(=O)(=O)n2ccc3c(N4CCNCC4)cccc32)cc1 [CBK003744C] | 78.7%
78 | O=C(Nc1ccc(OCc2ccoc2)cc1C(=O)O)c1ccc(Cl)cc1Cl [CBK003768D] | 87.5%
79 | CCCCNC(=S)NC1CC[C@@]2(c3ccc(Br)cc3)CCN(C)[C@H]2C1 (some centres unmarked) [CBK003781] | 111%
80 | CCOC(=O)c1sc(NS(=O)(=O)c2ccc(-c3ccccc3)cc2)nc1C [CBK003784] | 106%
81 | O=C(Cc1ccc(NS(=O)(=O)c2cc(Cl)c(Cl)s2)nc1)N1CCOCC1 [CBK003790] | 96.5%
82 | OC(COc1cccc2c1CCCC2)CN1CCC(Cc2ccccc2)CC1 (centres unmarked) [CBK003829] | 94.7%
83 | COc1ccc(-c2cc(=O)[nH]c(N3CCN(C)CC3)n2)cc1 [CBK003849] | 90.4%
84 | CCCCc1cc(=O)[nH]c(N2CCOCC2)n1 [CBK003851] | 102%
85 | CC1CN(C(=O)OC(C)(C)C)CCN1c1nc2ccccc2nc1O (centres unmarked) [CBK003877C] | 116%
86 | Nc1nc2c(O)cccc2s1 [CBK003892B] | 85.6%
87 | CN1CCN(c2nccnc2OCC2COc3ccccc3O2)CC1 (centres unmarked) [CBK003899C] | 96.7%
88 | NCc1ccc(OC2CCNCC2)cc1 [CBK003920T] | 88.7%
89 | CC(C)(C)OC(=O)N1CCC(CNS(C)(=O)=O)CC1 [CBK003925] | 78%

Same assay, conditions: human, hela cells, % viability, bulk resorufin, single well

Row | SMILES | viability at 28.5 h, 10 µM
90 | CN(C(=O)c1ccc(Cl)c(Cl)c1)[C@H]1CCC[C@H]1N1CCCC1 [CBK003411C] | 90%
91 | CN1CCC(C#N)(c2ccccc2F)CC1 [CBK003511] | 99.3%
92 | COC(=O)c1ccccc1NC(C)=O [CBK003522] | 107%
